Source: US10723813B2, “PDGF-B /PDGF-BB binding variants of heparan sulfates” (Agency for Science, Technology and Research, priority 2015, dated 2020)
Entries after “also recorded” stand apart in the source; their conditions may differ.

Tests used:
Format in all cases: cell-based
[1] = tested on: human dermal fibroblasts (HDFs); assay: In vitro proliferation of HDFs (Example 15), with or without PDGFR/FGFR1 inhibitors; conditions: FIG. 30
Method: FIG. 29. Charts showing proliferative effect of PDGF-BB and HS6 on human dermal fibroblasts: (A) PDGF-BB (1, 2.5, 5, 10, 25 ng/ml), (B) HS6 (0.25, 0.5, 1, 2.5, 5, 10, 25 μg HS6), (C) 2.5 ng PDGF-BB+HS6 (0, 0.25, 0.5, 1, 2.5, 5, 10, 25 μg).
FIG. 30. Charts showing effect of PDGFR and FGFR inhibition. (A) Effect of PDGFR inhibitor JNJ-10198409; (B) Effect of FGFR1 inhibitor SU5402.

[2] = tested on: human dermal fibroblast (HDF); assay: HDF migration scratch assay (IncuCyte)
Method: Migration Protocol: • 1. Seed 10,000 HDF per well in maintenance media, into a 96 well ImageLock plate. • 2. After 24 hrs, change media to 1% α-MEM • 3. Once cells are confluent, scratch the surface using the wound maker and wash once with PBS. • 4. Add 100 μl of treatment media into each well and place plate into IncuCyte and run for 40 hours. • 5. Program is set up to take photo every 2 hours. Results:
The migration protocol from Example 11 was followed using a range of HS6+ doses (20 μg/mL, 40 μg/mL, 60 μg/mL) with 5 ng/ml PDGF-BB.

[3] = tested on: human N-TERT/1 keratinocytes; assay: Scratch wound assay on keratinocytes; conditions: confluent N-TERT/1, IncuCyte; increasing amounts (FIG. 31)
[4] = tested on: human dermal fibroblast (HDF); assay: HDF proliferation (Guava Viacount, 72 hrs)
Method: Proliferation Protocol: • 1. Thaw human dermal fibroblast (HDF, Cascade Biologics) into a T75 in maintenance medium at 5×10^3 cells/cm^2 (α-MEM, 10% FCS, P/S) at 37° C. 5% CO^2 humidified incubator. • 2. At 70-80% confluence, wash cells in PBS twice, add 1 ml of 0.125% trypsin and incubate for 3 mins. Tap the dish and stop the trypsin by adding 5 ml of medium. Centrifuge cells down at 180 g for 7 mins. • 3. Count total number of cells. • 4. Seed cells at 500 μl of 3000 cells/cm^2 cell suspension per well and place the plates into the incubator for 24 hrs. • 5. Change media to α-MEM, 1% FCS, P/S media for 24 hrs. • 6. Treat cells with PDGF-BB and HS fractions. • 7. After 72 hrs, wash cells with PBS and add 100 ul of trypsin, incubate for 3 mins. • 8. Add 100 ul of Guava Viacount dye mastermix into each well of trypsinize cells. • 9. Transfer total volume of 200 ul of cells per well into a 96 well Guava plate. Results:
The proliferation protocol described in Example 9 was used.

| Molecule | Stimulation of proliferation in the presence of inhibitor [1] | PDGF-BB concentration up to which rate of wound closure increases [2] | Rate of closure at more than 10 ng/mL PDGF-BB [2] | HDF migration, PDGF-BB dosing ([2]; PDGF-BB alone) | Closure of the scratch wound, keratinocytes [3] | HDF proliferation, dosing ([4]; 72 hrs, increasing concentration of the substance) | Optimal concentration for proliferation ([4]; HDF, 72 hrs) | Viability of HDF ([4]; higher concentration of PDGF-BB) |
| --- | --- | --- | --- | --- | --- | --- | --- | --- |
| COc1cc2c(cc1OC)-c1[nH]nc(Nc3cccc(F)c3)c1C2 [JNJ-10198409] | very strongly inhibited |  |  |  |  |  |  |  |
| Cc1c[nH]c(/C=C2\C(=O)Nc3ccccc32)c1CCC(=O)O [SU5402] | also inhibited—but not as strongly |  |  |  |  |  |  |  |
| PDGF-BB: homodimer of platelet-derived growth factor B; recombinant (R&D) |  | up to 10 ng/mL | does not speed up the rate of closure | induces HDF migration | able to improve the closure | dose dependently increase HDF proliferation; also recorded: dose dependent increase in proliferation | 10 ng/mL | decreased viability |
